# In patent publication US8084644B2, “Iminopropene compound and use thereof” (Sumitomo Chemical Company, Limited, priority 2005, dated 2011):
# System: Haemaphysalis longicornis
# Assay: Test Example 11: filter paper bag contact test on ticks
# Format: in vivo
# Conditions: 48 h, 0.5 mg test compound on 5 cm×10 cm filter paper, after 2 days
# Experimental: 0.5 mg of the test compound was dissolved to […]. Onto one side of filter paper having 5 cm×10 cm, the solution was applied uniformly and then air-dried. Thereafter, the filter paper was folded in half and fixed by paper clips at the side to form bag like shape. Ten Haemaphysalis longicornis was put into the bag, and then the bag was closed with a paper clip. After 2 days, the number of dead insects was examined.
row,SMILES,mortality at 0.5 mg/filter paper [%]
1,"COc1ccc(SC=CC(=Nc2ccc(C)cc2)SCC(C)C)cc1 [(447), Isobutyl 3-(4-methoxyphenylthio)-N-(4-methylphenyl)thioacrylimidate]",100
2,"C(=CC(=Nc1ccccc1)SC1CCCCC1)Sc1ccccc1 [(187), Cyclohexyl N-phenyl-3-(phenylthio)thioacrylimidate]",100
3,"Cc1ccc(N=C(C=CSc2ccccc2)SC2CCCCC2)cc1 [(470), Cyclohexyl N-(4-methylphenyl)-3-(phenylthio)thioacrylimidate]",100
4,"Fc1cccc(SC=CC(=Nc2ccccc2)Oc2ccccc2)c1 [(113), Phenyl 3-(3-fluorophenylthio)-N-phenylacrylimidate]",100
5,"COc1cccc(SC=CC(=Nc2ccccc2)Oc2ccccc2)c1 [(107), Phenyl 3-(3-methoxyphenylthio)-N-phenylacrylimidate]",100
6,"CCCSC(C=CSc1ccccc1)=Nc1ccc(C)cc1 [(280), Propyl N-(4-methylphenyl)-3-(phenylthio)thioacrylimidate]",100
7,"Cc1ccc(N=C(C=CSc2ccc(C)cc2)SCC(C)C)cc1 [(443), Isobutyl N-(4-methylphenyl)-3-(4-methylphenylthio)thioacrylimidate]",100
8,"Ic1ccc(N=C(C=COc2ccccc2)Oc2ccccc2)cc1 [(80), Phenyl N-(4-iodophenyl)-3-(phenoxy)acrylimidate]",100
9,"Brc1ccc(SC=CC(=Nc2ccccc2)Oc2ccccc2)cc1 [(102), Phenyl 3-(4-bromophenylthio)-N-phenylacrylimidate]",100
10,"Brc1ccc(N=C(C=COc2ccccc2)Oc2ccccc2)cc1 [(77), Phenyl N-(4-bromophenyl)-3-(phenoxy)acrylimidate]",100
11,"Cc1cccc(N=C(C=COc2ccccc2)Oc2ccccc2)c1 [(69), Phenyl N-(3-methylphenyl)-3-(phenoxy)acrylimidate]",100
12,"Cc1ccc(N=C(C=CSc2ccccc2Cl)SCC(C)C)cc1 [(433), Isobutyl 3-(2-chlorophenylthio)-N-(4-methylphenyl)thioacrylimidate]",100
13,"Fc1ccc(SC=CC(=Nc2ccccc2)SC2CCCCC2)cc1 [(469), Cyclohexyl 3-(4-fluorophenylthio)-N-(phenyl)thioacrylimidate]",100
14,"CC(C)c1ccccc1SC=CC(=Nc1ccccc1)Oc1ccccc1 [(122), Phenyl 3-[2-(1-methylethyl)phenylthio]-N-phenylacrylimidate]",100
15,"Clc1ccc(SC(C=CSc2ccccc2)=Nc2ccccc2)cc1 [(2), 4-Chlorophenyl N-phenyl-3-(phenylthio)thioacrylimidate]",100
16,"Fc1ccc(N=C(C=CSc2ccccc2)Oc2ccccc2)cc1 [(50), Phenyl N-(4-fluorophenyl)-3-(phenylthio)acrylimidate]",100
17,"FC(F)(F)Oc1ccc(N=C(C=COc2ccccc2)Oc2ccccc2)cc1 [(207), Phenyl N-(4-trifluoromethoxyphenyl)-3-phenoxyacrylimidate]",100
18,"C=CCSC(C=CSc1ccccc1)=Nc1ccccc1 [(186), 2-Propenyl N-phenyl-3-(phenylthio)thioacrylimidate]",100
19,"FC(F)(F)c1cccc(SC=CC(=Nc2ccccc2)Oc2ccccc2)c1 [(111), Phenyl N-phenyl-3-(3-trifluoromethylphenylthio)acrylimidate]",100
20,"Cc1ccc(SC=CC(=Nc2ccccc2)Oc2ccccc2)cc1 [(118), Phenyl 3-(4-methylphenylthio)-N-phenylacrylimidate]",100
21,"CCCCSC(C=CSc1ccc(F)cc1)=Nc1ccc(C)cc1 [(474), Butyl 3-(4-fluorophenylthio)-N-(4-methylphenyl)thioacrylimidate]",100
